Test results published in US10494332B2, “Protein tyrosine phosphatases or SHP2 inhibitors and uses thereof” (Indiana University Research and Technology Corporation, priority 2015, dated 2019).
Like-named read-outs stand apart in the source and are kept apart here.

Experiments:
Type in all cases: biochemical
HePTP = biological target: T1, HePTP (Homo sapiens, UniProt P35236); assay: PTP inhibition assay (pNPP); details: […]; HePTP
T1 sequence (P35236 1-360): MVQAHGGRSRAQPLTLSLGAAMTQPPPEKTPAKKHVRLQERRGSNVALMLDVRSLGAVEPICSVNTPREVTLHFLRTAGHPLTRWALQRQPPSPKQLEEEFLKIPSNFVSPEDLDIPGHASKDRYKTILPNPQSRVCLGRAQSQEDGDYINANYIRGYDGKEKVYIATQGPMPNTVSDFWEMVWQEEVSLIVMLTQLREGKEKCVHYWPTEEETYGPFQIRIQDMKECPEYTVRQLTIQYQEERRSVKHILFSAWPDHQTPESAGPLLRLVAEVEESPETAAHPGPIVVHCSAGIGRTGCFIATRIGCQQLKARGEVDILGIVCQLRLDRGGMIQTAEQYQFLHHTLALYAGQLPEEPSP

SHP2 = biological target: T2, SHP2 (Homo sapiens, UniProt Q06124); assay: SHP2 phosphatase inhibition assay (pNPP); details: for IC50: read-out: IC50 SHP2
T2 sequence (Q06124 224-528): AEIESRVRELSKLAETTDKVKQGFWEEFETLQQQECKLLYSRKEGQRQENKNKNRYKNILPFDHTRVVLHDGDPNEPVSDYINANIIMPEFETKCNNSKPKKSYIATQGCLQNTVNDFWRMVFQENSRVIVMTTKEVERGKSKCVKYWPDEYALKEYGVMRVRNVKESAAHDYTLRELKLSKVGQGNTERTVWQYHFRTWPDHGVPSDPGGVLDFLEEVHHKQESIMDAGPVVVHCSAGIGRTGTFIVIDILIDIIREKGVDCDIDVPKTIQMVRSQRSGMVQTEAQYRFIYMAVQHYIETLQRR

LYP = biological target: T3, LYP (Homo sapiens, UniProt Q9Y2R2); assay: PTP inhibition assay (pNPP); details: […]; LYP
T3 sequence (Q9Y2R2 1-807): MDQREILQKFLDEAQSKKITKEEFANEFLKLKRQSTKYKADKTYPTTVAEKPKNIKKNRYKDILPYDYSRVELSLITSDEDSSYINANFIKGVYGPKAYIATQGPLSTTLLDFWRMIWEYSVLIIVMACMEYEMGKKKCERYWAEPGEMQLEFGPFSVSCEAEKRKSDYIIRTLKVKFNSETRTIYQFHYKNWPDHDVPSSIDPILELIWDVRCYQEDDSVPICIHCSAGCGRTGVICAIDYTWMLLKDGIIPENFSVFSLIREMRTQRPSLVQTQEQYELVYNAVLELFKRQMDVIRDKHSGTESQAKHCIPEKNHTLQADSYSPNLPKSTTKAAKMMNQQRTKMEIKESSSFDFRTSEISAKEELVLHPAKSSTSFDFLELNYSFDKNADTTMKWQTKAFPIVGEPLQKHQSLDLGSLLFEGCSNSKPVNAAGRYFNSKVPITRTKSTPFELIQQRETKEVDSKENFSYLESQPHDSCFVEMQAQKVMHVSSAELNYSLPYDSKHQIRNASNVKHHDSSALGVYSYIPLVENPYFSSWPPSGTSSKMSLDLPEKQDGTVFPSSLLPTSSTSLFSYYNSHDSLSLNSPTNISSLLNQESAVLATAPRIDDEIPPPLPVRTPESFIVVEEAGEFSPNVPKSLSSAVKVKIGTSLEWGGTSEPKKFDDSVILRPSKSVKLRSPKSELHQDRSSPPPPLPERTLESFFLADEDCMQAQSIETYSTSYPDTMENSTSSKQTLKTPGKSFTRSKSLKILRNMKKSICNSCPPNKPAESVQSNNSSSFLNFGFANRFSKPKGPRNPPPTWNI

LMWPTP = biological target: T4, LMWPTP (Homo sapiens, UniProt P24666); assay: PTP inhibition assay (pNPP); details: […]; LMWPTP
T4 sequence (P24666 1-158): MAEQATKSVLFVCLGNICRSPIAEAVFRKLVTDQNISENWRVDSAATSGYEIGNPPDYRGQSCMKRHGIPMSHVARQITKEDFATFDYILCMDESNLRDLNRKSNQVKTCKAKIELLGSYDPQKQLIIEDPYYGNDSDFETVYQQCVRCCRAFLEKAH

[1] = Example 9: SHP2 catalytic domain 20 nM, pNPP 3 mM, pH 7.0, 25° C.

Question: `COc1ccc(CNC(=O)C(Br)(c2ccccc2)S(=O)(=O)O)c(OC)c1` (stereo not shown) [Compound L319-Br1-N76] was tested. Which IC50 (HePTP) did it give?
Answer: 21.7 µM

Question: And the IC50 (SHP2; […], SHP2)?
Answer: 9.9 µM

Question: What does the source list for `O=C(Nc1ccc(N2CCOCC2)cc1)C(c1ccc2ccccc2c1)S(=O)(=O)O` (stereo not shown) [Compound L319-14-M68]?
Answer: IC50 (HePTP): 4.5 µM; IC50 (SHP2; […], SHP2): > 100 µM; IC50 (LYP): 8.3 µM; IC50 (LMWPTP): > 100 µM

Question: With `O=C(NNc1ccccc1[N+](=O)[O-])C(c1ccc(-c2ccccc2)cc1)S(=O)(=O)O` (stereo not shown) [Compound L319-16-N55] as the compound, how does the IC50 (HePTP) read?
Answer: 43 µM

Question: And the IC50 (SHP2; […], SHP2)?
Answer: 82 µM

Question: And the IC50 (LYP)?
Answer: 35 µM

Question: What about the IC50 (LMWPTP) of the same compound?
Answer: 90 µM

Question: `O=C(O)C(=O)Nc1ccc(NC(=O)C(c2ccccc2)S(=O)(=O)O)cc1` (stereo not shown) [Lib-1, 2-oxo-2-((4-(2-phenyl-2-sulfoacetamido)phenyl)amino)acetic acid] was tested. Which IC50 (SHP2; [1]) did it give?
Answer: > 50 µM

Question: Which results are given for `O=C(NNc1ccccc1)C(c1ccc([N+](=O)[O-])cc1)S(=O)(=O)O` (stereo not shown) [Compound L319-08-N58]?
Answer: IC50 (HePTP): 16 µM; IC50 (SHP2; […], SHP2): 7.28 µM; IC50 (LYP): 9.9 µM; IC50 (LMWPTP): 11 µM

Question: For `O=C(Nc1ccc(Br)c2ccccc12)C(c1ccc(-c2ccccc2)cc1)S(=O)(=O)O` (stereo not shown) [Compound L319-16-M47], which IC50 (HePTP) is on record?
Answer: 21 µM

Question: And the IC50 (SHP2; […], SHP2)?
Answer: 24 µM

Question: What about the IC50 (LYP) of the same compound?
Answer: 22 µM

Question: What about the IC50 (LMWPTP) of the same compound?
Answer: 37 µM

Question: Which “Inhibition of SHP2 at 200 μM” value (SHP2; 200 μM compound concentration) does the source give for `CC1(C)S[C@@H]2[C@H](NC(=O)C(c3ccccc3)S(=O)(=O)O)C(=O)N2[C@H]1C(=O)O` (stereo partly shown) [sulbenicillin, reference compound] here?
Answer: no activity

Question: `O=C(Nc1ccc(N2CCOCC2)cc1)C(c1cccc(F)c1)S(=O)(=O)O` (stereo not shown) [Compound L319-13-M68] was tested. Which IC50 (HePTP) did it give?
Answer: 4.3 µM

Question: And the IC50 (SHP2; […], SHP2)?
Answer: > 100 µM

Question: What about the IC50 (LYP) of the same compound?
Answer: 10 µM

Question: And the IC50 (LMWPTP)?
Answer: 27 µM

Question: `O=C(NC1=NN=C(c2ccc(Br)cc2)C1)C(=O)Nc1ccc(NC(=O)C(c2ccccc2)S(=O)(=O)O)cc1` (stereo not shown) [Compound L319-20-M78] was tested. Which IC50 (SHP2; pNPP at Km, pH 7.0, 25° C.) did it give?
Answer: 0.7 µM

Question: Which IC50 (HePTP) does the source give for `O=C(Nc1nc2cc(Cl)ccc2o1)C(c1ccc(-c2ccccc2)cc1)S(=O)(=O)O` (stereo not shown) [Compound L319-16-M60] here?
Answer: 13 µM

Question: What about the IC50 (SHP2; […], SHP2) of the same compound?
Answer: 12 µM

Question: What about the IC50 (LYP) of the same compound?
Answer: 15 µM

Question: And the IC50 (LMWPTP)?
Answer: 18 µM

Question: How did the IC50 (HePTP) turn out when `O=C(O)C(c1ccc(-c2ccccc2)cc1)S(=O)(=O)O` (stereo not shown) [Compound L319-16] was run?
Answer: 11 µM

Question: And the IC50 (SHP2; […], SHP2)?
Answer: 25 µM

Question: What about the IC50 (LYP) of the same compound?
Answer: 5.19 µM

Question: What about the IC50 (LMWPTP) of the same compound?
Answer: > 100 µM

Question: `O=C(Nc1ccc(OCc2ccccc2)c(Cl)c1)C(c1ccc2ccccc2c1)S(=O)(=O)O` (stereo not shown) [Compound L319-14-M50] was tested. Which IC50 (HePTP) did it give?
Answer: 25 µM

Question: What about the IC50 (SHP2; […], SHP2) of the same compound?
Answer: 24 µM

Question: What about the IC50 (LYP) of the same compound?
Answer: 23 µM

Question: What about the IC50 (LMWPTP) of the same compound?
Answer: 28.8 µM

Question: How did the IC50 (SHP2; [1]) turn out when `O=C(O)C(=O)Nc1ccc(CNC(=O)C(c2ccccc2)S(=O)(=O)O)cc1` (stereo not shown) [Lib-4, 2-oxo-2-((4-((2-phenyl-2-sulfoacetamido)methyl)phenyl)amino)acetic acid] was run?
Answer: > 50 µM

Question: Which IC50 (SHP2; pNPP at Km, pH 7.0, 25° C.) does the source give for `O=C(Nc1ccc(NC(=O)C(c2ccccc2)S(=O)(=O)O)cc1)C(=O)Nc1ccc(-c2ccccc2)cc1` (stereo not shown) [Compound L319-20-N08] here?
Answer: 1.4 µM

Question: How did the IC50 (SHP2; pNPP at Km, pH 7.0, 25° C.) turn out when `O=C(Nc1ccc(CNC(=O)C(c2ccccc2)S(=O)(=O)O)cc1)C(=O)Nc1ccccc1-c1nc2ccccc2[nH]1` (stereo not shown) [Compound L319-24-M77] was run?
Answer: 1.1 µM

Question: With `CC(C)CCNC(=O)C(c1ccc2ccccc2c1)S(=O)(=O)O` (stereo not shown) [Compound L319-14-N03] as the compound, how does the IC50 (HePTP) read?
Answer: 24 µM

Question: And the IC50 (SHP2; […], SHP2)?
Answer: 74 µM

Question: What about the IC50 (LYP) of the same compound?
Answer: 11.6 µM

Question: And the IC50 (LMWPTP)?
Answer: > 100 µM

Question: Which IC50 (HePTP) does the source give for `O=C(Nc1ccc(N2CCOCC2)cc1)C(c1ccccc1F)S(=O)(=O)O` (stereo not shown) [Compound L319-06-M68] here?
Answer: 22 µM

Question: What about the IC50 (SHP2; […], SHP2) of the same compound?
Answer: > 100 µM

Question: What about the IC50 (LYP) of the same compound?
Answer: > 100 µM

Question: And the IC50 (LMWPTP)?
Answer: > 100 µM

Question: `O=C(Nc1ccc(N2CCOCC2)cc1)C(c1ccc(Br)cc1)S(=O)(=O)O` (stereo not shown) [Compound L319-12-M68] was tested. Which IC50 (HePTP) did it give?
Answer: 3.9 µM

Question: And the IC50 (SHP2; […], SHP2)?
Answer: > 100 µM

Question: What about the IC50 (LYP) of the same compound?
Answer: 7.43 µM

Question: And the IC50 (LMWPTP)?
Answer: 21 µM
